Results published in US6669951B2, “Compositions and methods for enhancing drug delivery across and into epithelial tissues” (CellGate, Inc., priority 1999, dated 2003).

Experiment: Blood levels after buccal delivery
Type: in vivo, rat
Settings: 5 mg/kg in Cremophor EL:ethanol 1:1
From the text: Clotting was inhibited by transferring the blood to glass tubes containing 100λ of 0.5% EDTA, and the blood was frozen.

For `CC(=O)O[C@H]1C(=O)[C@@]2(C)[C@H]([C@H](OC(=O)c3ccccc3)[C@]3(O)C[C@H](OC(=O)[C@H](O)[C@@H](NC(=O)c4ccccc4)c4ccccc4)C(C)=C1C3(C)C)[C@]1(OC(C)=O)CO[C@@H]1C[C@@H]2O` [taxol, paclitaxel], the “appearance of taxol in blood after buccal administration” value was “appeared in the blood stream by the first time point”.
